Target: T1, recombinant human PAI-1 (Homo sapiens, UniProt P05121)
T1 construct: purchased Molecular Innovations, Inc
Assay: Test Example 2: human PAI-1 inhibitory activity (tPA fluorogenic substrate, pH 7.4 HEPES buffer)
Assay type: biochemical
Conditions: human PAI-1
Procedure: 0.1 M HEPES, 0.1 M NaCl. 1 mM EDTA. 0.1% Polyethylene glycol 8,000 (Hampton Research Corporation),
2 mM Dimethyldecylphoshine oxide [Apo-10] (Fluka Corporation)

T1 sequence (P05121 24-402): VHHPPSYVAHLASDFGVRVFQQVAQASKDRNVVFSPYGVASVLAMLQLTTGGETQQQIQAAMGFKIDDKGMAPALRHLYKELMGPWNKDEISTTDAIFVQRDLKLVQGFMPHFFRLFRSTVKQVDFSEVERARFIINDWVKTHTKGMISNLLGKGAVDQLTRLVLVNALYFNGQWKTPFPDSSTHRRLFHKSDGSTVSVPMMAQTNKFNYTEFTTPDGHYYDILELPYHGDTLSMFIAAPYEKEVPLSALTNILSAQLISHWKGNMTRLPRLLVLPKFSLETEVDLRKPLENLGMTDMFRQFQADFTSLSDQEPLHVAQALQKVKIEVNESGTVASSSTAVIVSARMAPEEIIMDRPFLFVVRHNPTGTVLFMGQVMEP

| Inhibition Rate of PAI-1 Activity (%) (compound concentration 0.1 μM) | Inhibition Rate of PAI-1 Activity (%) (compound concentration 0.3 μM) | Inhibition Rate of PAI-1 Activity (%) (compound concentration 1 μM) | Inhibition Rate of PAI-1 Activity (%) (compound concentration 3 μM) | Structure (SMILES) |
| --- | --- | --- | --- | --- |
| 6 | 13 | 91 | >99 | CC(C)c1ccccc1Oc1cc(-c2ccc(OC(F)(F)F)cc2)ccc1/C=C/C(=O)O [Compound 490] |
| 6 | 10 | 66 | >99 | CC(C)c1ccccc1Oc1cc(-c2ccc(OC(F)(F)F)cc2)ccc1CCC(=O)O [Compound 491] |
| 5 | 20 | >99 | >99 | O=C(O)COc1ccc(-c2ccc(OC(F)(F)F)cc2)cc1Oc1ccc(OCc2ccccc2)cc1 [Compound 492] |
| 9 | 24 | 87 | 92 | Cc1cc(C)cc(Oc2cc(-c3ccc(C(C)(C)C)cc3)ccc2/C=C/C(=O)O)c1 [Compound 494] |
| 8 | 64 | 98 | >99 | CC(C)(C)c1ccc(Oc2cc(-c3ccc(C(C)(C)C)cc3)ccc2/C=C/C(=O)O)cc1 [Compound 495] |
| 4 | 9 | 85 | >99 | Cc1cc(C)cc(-c2ccc(/C=C/C(=O)O)c(Oc3ccc(C(C)(C)C)cc3)c2)c1 [Compound 496] |
| 3 | 24 | >99 | >99 | CC(C)(C)c1ccc(Oc2cc(-c3ccc(C(C)(C)C)cc3)ccc2CCC(=O)O)cc1 [Compound 497] |
| 1 | 4 | 44 | >99 | Cc1cc(C)cc(-c2ccc(CCC(=O)O)c(Oc3ccc(C(C)(C)C)cc3)c2)c1 [Compound 498] |
| 15 | 14 | 77 | 98 | Cc1cc(C)cc(Oc2cc(-c3ccc(C(C)(C)C)cc3)ccc2CCC(=O)O)c1 [Compound 499] |
| 19 | 14 | 25 | 80 | CC(Oc1cc(-c2ccc(OC(F)(F)F)cc2)ccc1/C=C/C(=O)O)c1ccccc1 (stereo not shown) [Compound 500] |
| 12 | 0 | 12 | 83 | CC(Oc1cc(-c2ccc(OC(F)(F)F)cc2)ccc1CCC(=O)O)c1ccccc1 (stereo not shown) [Compound 501] |
| 13 | 27 | 97 | 93 | CC(C)(C)c1ccc(Oc2cc(-c3cccc(OC(F)(F)F)c3)ccc2/C=C/C(=O)O)cc1 [Compound 503] |
| 13 | 26 | 91 | >99 | CC(C)(C)c1ccc(Oc2cc(-c3cccc(OC(F)(F)F)c3)ccc2CCC(=O)O)cc1 [Compound 504] |
| 2 | 9 | 78 | >99 | O=C(O)/C=C/c1ccc(-c2ccc(OC(F)(F)F)cc2)cc1OC(c1ccccc1)c1ccccc1 [Compound 506] |
| 6 | 8 | 49 | >99 | O=C(O)CCc1ccc(-c2ccc(OC(F)(F)F)cc2)cc1OC(c1ccccc1)c1ccccc1 [Compound 507] |
| 18 | 9 | 48 | 98 | O=C(O)CCc1ccc(-c2ccc(OC(F)(F)F)cc2)cc1OCCCSc1ccccc1 [Compound 508] |
| 1 | 22 | 96 | >99 | CC(C)c1ccc(Oc2cc(-c3ccc(OC(F)(F)F)cc3)ccc2/C=C/C(=O)O)cc1 [Compound 509] |
| 0 | 8 | 84 | >99 | CC(C)c1ccc(Oc2cc(-c3ccc(OC(F)(F)F)cc3)ccc2CCC(=O)O)cc1 [Compound 510] |
| 11 | 68 | >99 | >99 | CCCCc1ccc(Oc2cc(-c3ccc(OC(F)(F)F)cc3)ccc2/C=C/C(=O)O)cc1 [Compound 511] |

| Inhibition Rate of PAI-1 Activity (%) (compound concentration 0.1 μM) | Inhibition Rate of PAI-1 Activity (%) (compound concentration 0.3 μM) | Inhibition Rate of PAI-1 Activity (%) (compound concentration 1 μM) | Inhibition Rate of PAI-1 Activity (%) (compound concentration 3 μM) | Structure (SMILES) |
| --- | --- | --- | --- | --- |
| 18 | 41 | 96 | 98 | CCCCc1ccc(Oc2cc(-c3ccc(OC(F)(F)F)cc3)ccc2CCC(=O)O)cc1 [Compound 512] |
| 17 | 7 | 69 | >99 | CC(C)c1ccccc1Oc1cc(-c2ccc(OC(F)(F)F)cc2)ccc1OCC(=O)O [Compound 513] |
| 21 | 22 | 96 | >99 | CC(C)(C)c1cccc(Oc2cc(-c3cccc(OC(F)(F)F)c3)ccc2/C=C/C(=O)O)c1 [Compound 514] |
| 12 | 16 | 86 | >99 | CC(C)(C)c1cccc(Oc2cc(-c3cccc(OC(F)(F)F)c3)ccc2CCC(=O)O)c1 [Compound 515] |
| 16 | 39 | 98 | >99 | CC(C)c1ccc(Sc2cc(-c3ccc(OC(F)(F)F)cc3)ccc2/C=C/C(=O)O)cc1 [Compound 516] |
| 20 | 50 | 95 | >99 | CC(C)(C)c1ccc(Sc2cc(-c3ccc(OC(F)(F)F)cc3)ccc2CCC(=O)O)cc1 [Compound 517] |
| 14 | 54 | >99 | >99 | CC(C)c1ccc(-c2ccc(/C=C/C(=O)O)c(Oc3ccc(C(C)(C)C)cc3)c2)cc1 [Compound 518] |
| 1 | 19 | >99 | >99 | CC(C)c1ccc(-c2ccc(CCC(=O)O)c(Oc3ccc(C(C)(C)C)cc3)c2)cc1 [Compound 519] |
| 14 | 72 | >99 | >99 | CC(C)c1ccc(-c2ccc(/C=C/C(=O)O)c(Sc3ccc(C(C)(C)C)cc3)c2)cc1 [Compound 520] |
| 25 | 82 | >99 | >99 | CCC(CC)Oc1ccc(-c2ccc(/C=C/C(=O)O)c(Oc3ccc(C(C)(C)C)cc3)c2)cc1 [Compound 521] |
| 33 | 71 | 98 | 98 | CCC(CC)Oc1ccc(-c2ccc(CCC(=O)O)c(Oc3ccc(C(C)(C)C)cc3)c2)cc1 [Compound 522] |
| 11 | 15 | 78 | >99 | CCCCOc1ccc(Oc2cc(-c3ccc(OC(F)(F)F)cc3)ccc2OCC(=O)O)cc1 [Compound 523] |
| 6 | 36 | 98 | >99 | CC(C)(C)c1ccc(Oc2cc(-c3ccc(OC(F)(F)F)cc3)ccc2CCCC(=O)O)cc1 [Compound 527] |
| 8 | 12 | 51 | 97 | O=C(O)/C=C/c1ccc(-c2ccc(OC(F)(F)F)cc2)cc1Sc1ccccc1 [Compound 528] |
| 18 | 29 | 94 | >99 | CC(C)(C)c1ccc(Sc2cc(-c3ccc(OC(F)(F)F)cc3)ccc2/C=C\C(=O)O)cc1 [Compound 529] |
| 17 | 21 | 93 | >99 | CC(C)(C)c1ccc(Sc2cc(-c3ccc(OC(F)(F)F)cc3)ccc2CC(=O)O)cc1 [Compound 530] |
| 3 | 38 | 94 | 96 | CC(C)(C)c1ccc(Oc2cc(Nc3ccc(OC(F)(F)F)cc3)ccc2/C=C/C(=O)O)cc1 [Compound 531] |
| 12 | 59 | >99 | >99 | CC(C)(C)c1ccc(Oc2cc(Nc3ccc(OC(F)(F)F)cc3)ccc2CCC(=O)O)cc1 [Compound 532] |
